Measurements published in patent US9326515B2, “Fungicidal 3-[(1,3-thiazol-4-ylmethoxyimino)(phenyl)methyl]-2-substituted-1,2,4-oxadiazol-5(2H)-one derivatives” (BAYER INTELLECTUAL PROPERTY GMBH, priority 2011, dated 2016).
Read-outs that look alike come from different tables or passages of the source.

What was measured:
Phytophthora infestans [1] = assay type: in vivo; settings: 500 ppm, spray on tomato plants, contaminated after 24 hours, grading 5 days after contamination vs control plants
Phytophthora infestans [2] = assay type: in vivo; settings: 100 ppm of active ingredient, spray on young tomato plants, inoculated one day after treatment, evaluated 7 days after inoculation
[3] = for LogP: table 1, compounds of formula (I), HPLC reversed phase, pH 2.7, 0.1% formic acid in water / acetonitrile gradient; for chromatographic logP: pH 2.7
Plasmopara viticola = test: Example I: in vivo preventive test on Plasmopara viticola (grapevines); settings: 10 ppm of active ingredient, spray on young grapevine plants, inoculated after spray coating dried, evaluated 6 days after inoculation
Method: To produce a suitable preparation of active compound, 1 part by weight of active compound is mixed with the stated amounts of solvent and emulsifier, and the concentrate is diluted with water to the desired concentration.
To test for preventive activity, young plants are sprayed with the preparation of active compound at the stated rate of application. After the spray coating has dried on, the plants are inoculated with an aqueous spore suspension of Plasmopara viticola and then remain for 1 day in an incubation cabinet at approximately 20° C. and a relative atmospheric humidity of 100%. The plant is subsequently placed for 4 days in a greenhouse at approximately 21° C. and a relative atmospheric humidity of approximately 90%. The plants are then misted and placed for 1 day in an incubation cabinet.
The test is evaluated 6 days after the inoculation. 0% means an efficacy which corresponds to that of the untreated control, while an efficacy of 100% means that no disease is observed.

[4] = pH 2.7
Botrytis cinerea = test: Example C: in vivo preventive test on Botrytis cinerea (grey mould); settings: 500 ppm, spray on gherkin plants, contaminated after 24 hours, grading 4 to 5 days after contamination vs control plants
Method: (§1) The active ingredients tested are prepared by homogenization in a mixture of acetone/tween/DMSO and then diluted with water to obtain the desired active material concentration.
(§2) Gherkin plants (“Vert petit de Paris” variety), sown in starter cups on a 50/50 peat soil-pozzolana substrate and grown at 24° C., are treated at the Z11 cotyledon stage by spraying with the active ingredient prepared as described above. Plants, used as controls, are treated with the mixture of acetone/tween/DMSO/water not containing the active material.
After 24 hours, the plants are contaminated by spraying the cotyledons with an aqueous suspension of cryopreserved Botrytis cinerea spores (50 000 spores per ml). The spores are suspended in a nutrient solution composed of 10 g/L of PDB, 50 g/L of D-Fructose, 2 g/L of NH4NO3 and 1 g/L of KH2PO4. The contaminated gherkin plants are incubated at 17° C. and at 90% relative humidity.
Grading (% of efficacy) is carried out 4 to 5 days after the contamination, in comparison with the control plants.
(§3) Under these conditions, good (at least 70%) or total protection is observed at a dose of 500 ppm with the following compounds: […]

Sphaerotheca fuliginea = test: Example D: in vivo preventive test on Sphaerotheca fuliginea (powdery mildew on cucurbits); settings: 500 ppm, spray on gherkin plants, contaminated after 24 hours, grading 12 days after contamination vs control plants
Method: as §1, §2
After 24 hours, the plants are contaminated by spraying the cotyledons with an aqueous suspension of Sphaerotheca fuliginea spores (100 000 spores per ml). The spores are collected from infected plants. The contaminated gherkin plants are incubated at about 20° C. and at 70-80% relative humidity.
(§4) Grading (% of efficacy) is carried out 12 days after the contamination, in comparison with the control plants.
as §3

Puccinia recondita = test: Example F: in vivo preventive test on Puccinia recondita (brown rust on wheat); settings: 500 ppm, spray on wheat plants, contaminated after 24 hours, grading 12 days after contamination vs control plants
Method: The active ingredients tested are prepared by homogenization in a mixture of acetone/tween/DMSO, and then diluted with water to obtain the desired active material concentration.
Wheat plants (“Scipion” variety), sown in starter cups on a 50/50 peat soil-pozzolana substrate and grown at 22° C., are treated at the 1-leaf stage (10 cm height) by spraying with the active ingredient prepared as described above. Plants, used as controls, are treated with the mixture of acetone/tween/DMSO/water not containing the active material.
After 24 hours, the plants are contaminated by spraying the leaves with an aqueous suspension of Puccinia recondita spores (100 000 spores per ml). The spores are collected from an infected plant and are suspended in water containing 2.5 ml/l of Tween 80 at 10%. The contaminated wheat plants are incubated for 24 hours at 20° C. and at 100% relative humidity, and then for 10 days at 20° C. and at 70-80% relative humidity.
as §4, §3

Row | SMILES | % efficacy (Phytophthora infestans [1]) | Eff. % (Phytophthora infestans [2]) | chromatographic logP [3] | Eff. % (Plasmopara viticola) | LogP [4] | also measured
1 | Cn1oc(=O)nc1C(=NOCc1csc(NC(=O)COC2CCCCC2)n1)c1ccccc1 [Example 23] | 100% | 100% | – | – | – | LogP [3]: 3.42
2 | Cn1oc(=O)nc1/C(=N\OCc1csc(N)n1)c1ccccc1 [Example 4, 3-[(Z)-{[(2-amino-1,3-thiazol-4-yl)methoxy]imino}(phenyl)methyl]-2-methyl-1,2,4-oxadiazol-5(2H)-one] | – | – | 1.07 | – | – | –
3 | CN(O)C(=N)/C(=N\OCc1csc(Br)n1)c1ccccc1 [Example V-3, (2Z)-2-{[(2-bromo-1,3-thiazol-4-yl)methoxy]imino}-N-hydroxy-N-methyl-2-phenylethanimidamide] | – | – | 1.34 | – | – | –
4 | Cn1oc(=O)nc1/C(=N\OCc1csc(NC(=O)C2CCc3ccccc3O2)n1)c1ccccc1 (stereo not shown) [Example 22, N-{4-[({[(Z)-(2-methyl-5-oxo-2,5-dihydro-1,2,4-oxadiazol-3-yl)(phenyl)methylene]amino}oxy)methyl]-1,3-thiazol-2-yl}chromane-2-carboxamide] | – | 100% | 3.35 | 96% | – | –
5 | CCC(C)SC(=O)Nc1nc(CON=C(c2ccccc2)c2nc(=O)on2C)cs1 (stereo not shown) [Example 31] | 100% | – | – | – | 3.46 | % efficacy (Botrytis cinerea): 82%
6 | COc1cccc(/C(=N/OCc2csc(NC(=O)OC3CCCCC3)n2)c2nc(=O)on2C)c1 [Example 33, Cyclohexyl {4-[({[(Z)-(3-methoxyphenyl)(2-methyl-5-oxo-2,5-dihydro-1,2,4-oxadiazol-3-yl)methylene]amino}oxy)methyl]-1,3-thiazol-2-yl}carbamate] | 88% | – | 3.57 | – | – | –
7 | C#CCCC(C)OC(=O)Nc1nc(CO/N=C(/c2ccccc2)c2nc(=O)on2C)cs1 (racemic) [Example 32] | 99% | – | – | – | 3.00 | % efficacy (Botrytis cinerea): 79%
8 | C#CCCCCOC(=O)Nc1nc(CON=C(c2ccccc2)c2nc(=O)on2C)cs1 [Example 30] | 100% | – | – | 90% | 3.02 | % efficacy (Sphaerotheca fuliginea): 78%; % efficacy (Puccinia recondita): 98%
9 | CC(OCc1ccccc1)C(=O)Nc1nc(CON=C(c2ccccc2)c2nc(=O)on2C)cs1 (stereo not shown) [Example 19] | 100% | – | – | 91% | – | LogP [3]: 3.29
10 | Cn1oc(=O)nc1C(=NOCc1csc(NC(=O)C2Cc3ccccc3O2)n1)c1ccccc1 (stereo not shown) [Example 24] | 100% | 84% | – | 93% | 3.06 | –
11 | Cc1cccc2c1OC(C(=O)Nc1nc(CON=C(c3ccccc3)c3nc(=O)on3C)cs1)CO2 (stereo not shown) [Example 25] | – | 92% | – | 96% | 3.42 | –
12 | C#CCC(C)OC(=O)Nc1nc(CON=C(c2ccccc2)c2nc(=O)on2C)cs1 (stereo not shown) [Example 10] | – | 93% | – | 88% | 2.80 | –
13 | Cn1oc(=O)nc1/C(=N\OCc1csc(NC(=O)C2COc3ccccc3O2)n1)c1ccccc1 (stereo not shown) [Example 9, N-{4-[({[(Z)-(2-methyl-5-oxo-2,5-dihydro-1,2,4-oxadiazol-3-yl)(phenyl)methylene]amino}oxy)methyl]-1,3-thiazol-2-yl}-2,3-dihydro-1,4-benzodioxine-2-carboxamide] | – | 98% | 3.11 | 97% | – | –
14 | Cn1oc(=O)nc1C(=NOCc1csc(NC(=O)COc2ccccc2)n1)c1ccccc1 [Example 8] | – | 95% | – | 97% | 2.98 | –
15 | Cn1oc(=O)nc1C(=NOCc1csc(NC(=O)OCCc2ccccc2)n1)c1ccccc1 [Example 14] | – | 95% | – | 99% | 3.35 | –
16 | Cn1oc(=O)nc1/C(=N/OCc1csc(NC(=S)Cc2ccc(Cl)cc2)n1)c1ccccc1 [Example 101, 2-(4-chlorophenyl)-N-{4-[({[(E)-(2-methyl-5-oxo-2,5-dihydro-1,2,4-oxadiazol-3-yl)(phenyl)methylene]amino}oxy)methyl]-1,3-thiazol-2-yl}ethanethioamide] | – | – | 3.85 | – | – | –
17 | Cc1ccc(OC(C)C(=O)Nc2nc(CON=C(c3ccccc3)c3nc(=O)on3C)cs2)cc1 (stereo not shown) [Example 27] | – | 95% | – | 96% | 3.46 | –
18 | C#CCCCOC(=O)Nc1nc(CON=C(c2ccccc2)c2nc(=O)on2C)cs1 [Example 29] | 95% | – | – | – | 2.77 | % efficacy (Puccinia recondita): 94%
19 | Cn1oc(=O)nc1/C(=N\OCc1csc(NC(=O)Cc2ccc(Cl)cc2)n1)c1ccccc1 [Example 98, 2-(4-chlorophenyl)-N-{4-[({[(Z)-(2-methyl-5-oxo-2,5-dihydro-1,2,4-oxadiazol-3-yl)(phenyl)methylene]amino}oxy)methyl]-1,3-thiazol-2-yl}acetamide] | – | – | 3.23 | – | – | –
20 | C#CCCOC(=O)Nc1nc(CON=C(c2ccccc2)c2nc(=O)on2C)cs1 [Example 11] | – | 70% | – | 78% | 2.56 | –
21 | Cn1oc(=O)nc1C(=NOCc1csc(NC(=O)C2CCc3ccccc3C2)n1)c1ccccc1 (stereo not shown) [Example 26] | – | 92% | – | 94% | 3.55 | –
22 | CN(O)C(=N)/C(=N\OCc1csc(N)n1)c1ccccc1 [Example V-2, (2Z)-2-{[(2-amino-1,3-thiazol-4-yl)methoxy]imino}-N-hydroxy-N-methyl-2-phenylethanimidamide] | – | – | 0.47 | – | – | –
23 | Cn1oc(=O)nc1/C(=N\OCc1csc(Br)n1)c1ccccc1 [Example 99, 3-[(Z)-{[(2-bromo-1,3-thiazol-4-yl)methoxy]imino}(phenyl)methyl]-2-methyl-1,2,4-oxadiazol-5(2H)-one] | – | – | 2.68 | – | – | –
24 | CCCCCCC(=O)Nc1nc(CON=C(c2ccccc2)c2nc(=O)on2C)cs1 [Example 1] | – | 87% | – | 90% | 3.55 | –
25 | Cn1oc(=O)nc1C(=NOCc1csc(NC(=O)OC(C)(C)C)n1)c1ccccc1 [Example 20] | – | 92% | – | 94% | 3.06 | –
26 | Cn1oc(=O)nc1/C(=N\OCc1csc(NC(=S)Cc2ccc(Cl)cc2)n1)c1ccccc1 [Example 100, 2-(4-chlorophenyl)-N-{4-[({[(Z)-(2-methyl-5-oxo-2,5-dihydro-1,2,4-oxadiazol-3-yl)(phenyl)methylene]amino}oxy)methyl]-1,3-thiazol-2-yl}ethanethioamide] | – | – | 4.04 | – | – | –
27 | Cn1oc(=O)nc1C(=NOCc1csc(NC(=O)C2(C)CC2)n1)c1ccccc1 [Example 16] | – | 97% | – | 91% | 2.66 | –
28 | [H]/N=C(/C(=N\OCc1csc(NC(=O)OCCc2ccccc2)n1)c1ccccc1)N(O)CC [Example V-4, 2-phenylethyl (4-{[({(1Z,2Z)-2-[ethyl(hydroxy)amino]-2-imino-1-phenylethylidene}amino)oxy]methyl}-1,3-thiazol-2-yl)carbamate] | – | – | 2.07 | – | – | –
29 | CCCCCC(=O)Nc1nc(CON=C(c2ccccc2)c2nc(=O)on2C)cs1 [Example 12] | – | 92% | – | 94% | 3.19 | –
30 | COc1cccc(/C(=N/OCc2csc(NC(=O)OC(C)(C)C)n2)c2nc(=O)on2C)c1 [Example 34] | 100% | – | – | 95% | 3.13 | –
